From patent EP0089538A1, “Optically active derivatives of phenoxy-benzoic acid, process for their preparation and their use as herbicides” (BAYER AG, priority 1982, dated 1983)

What was measured:
Format in all cases: in vivo
Monocotyledoneae [1] = test: Post-emergence test; details: average effect on several monocots, % damage vs untreated control after three weeks
Source text: (§1) Post-emergence-Test Lösungsmittel: 5 Gewichtsteile Aceton Emulgator : 1 Gewichtsteil Alkylarylpolyglycolether
(§2) Zur Herstellung einer zweckmäßigen Wirkstoffzubereitung vermischt man 1 Gewichtsteil Wirkstoff mit der angegebenen Menge Lösungsmittel, gibt die angegebene Menge Emulgator zu und verdünnt das Konzentrat mit Wasser auf die gewünschte Konzentration.
(§3) Mit der Wirkstoffzubereitung spritzt man Testpflanzen, welche eine Höhe von 5 - 15 cm haben so, daß die jeweils gewünschten Wirkstoffmengen pro Flächeneinheit ausgebracht werden. Die Konzentration der Spritzbrühe wird so gewählt, daß in 2000 1 Wasser/ha die jeweils gewünschten Wirkstoffmengen ausgebracht werden. Nach drei Wochen wird der Schädigungsgrad der Pflanzen bonitiert in % Schädigung im Vergleich zur Entwicklung der unbehandelten Kontrolle. Es bedeuten: • 0 % = keine Wirkung (wie unbehandelte Kontrolle) 100 % = totale Vernichtung

Rüben [2] = test: Post-emergence test; details: % damage vs untreated control after three weeks
Source text: as §1, §2, §3

Soja [3] = test: Post-emergence test; details: % damage vs untreated control after three weeks
Source text: as §1, §2, §3

Dicotyledoneae [4] = test: Post-emergence test; details: average effect on several dicots, % damage vs untreated control after three weeks
Source text: as §1, §2, §3

Mais [5] = test: Post-emergence test; details: % damage vs untreated control after three weeks
Source text: as §1, §2, §3

Monocotyledoneae [6] = test: Pre-emergence test; details: average effect on several monocots, % damage vs untreated control after three weeks
Source text: (§4) Pre-emergence-Test Lösungsmittel: 5 Gewichtsteile Aceton Emulgator: 1 Gewichtsteil Alkylarylpolyglycolether
as §2
(§5) Samen der Testpflanzen werden in normalen Boden ausgesät und nach 24 Stunden mit der Wirkstoffzubereitung begossen. Dabei hält man die Wassermenge pro Flächeneinheit zweckmäßigerweise konstant. Die Wirkstoffkonzentration in der Zubereitung spielt keine Rolle, entscheidend ist nur die Aufwandmenge des Wirkstoffs pro Flächeneinheit. Nach drei Wochen wird der Schädigungsgrad der Pflanzen bonitiert in % Schädigung im Vergleich zur Entwicklung der unbehandelten Kontrolle. Es bedeuten: • 0 % = keine Wirkung (wie unbehandelte Kontrolle) 100 % = totale Vernichtung

Rüben [7] = test: Pre-emergence test; details: % damage vs untreated control after three weeks
Source text: as §4, §2, §5

Soja [8] = test: Pre-emergence test; details: % damage vs untreated control after three weeks
Source text: as §4, §2, §5

Dicotyledoneae [9] = test: Pre-emergence test; details: average effect on several dicots, % damage vs untreated control after three weeks
Source text: as §4, §2, §5

Mais [10] = test: Pre-emergence test; details: % damage vs untreated control after three weeks
Source text: as §4, §2, §5

Testpflanzen [11] = test: Pre-emergence test, overall comparison with racemates; details: compared with the corresponding racemic compounds (A) and (B)
Source text: as §4, §2, §5

Testpflanzen [12] = test: Post-emergence test, overall comparison with racemates; details: compared with the corresponding racemic compounds (A) and (B)
Source text: as §1, §2, §3

Compound | Wirkung (in %) Monocotyledoneae (Monocotyledoneae [1]; 1 kg/ha) | Wirkung (in %) Rüben (Rüben [2]; 1 kg/ha) [%] | Wirkung (in %) Soja (Soja [3]; 1 kg/ha) [%] | Wirkung (in %) Dicotyledoneae (Dicotyledoneae [4]; 1 kg/ha) | Wirkung (in %) Mais (Mais [5]; 1 kg/ha) [%] | Wirkung (in %) Monocotyledoneae (Monocotyledoneae [6]; 1 kg/ha) | Wirkung (in %) Rüben (Rüben [7]; 1 kg/ha) [%] | Wirkung (in %) Soja (Soja [8]; 1 kg/ha) [%] | Wirkung (in %) Dicotyledoneae (Dicotyledoneae [9]; 1 kg/ha) | Wirkung (in %) Mais (Mais [10]; 1 kg/ha) [%] | herbizide Wirksamkeit (Testpflanzen [11]) | herbizide Wirksamkeit (Testpflanzen [12]) | further results
CCOC(=O)C(C)OC(=O)c1cc(Oc2c(Cl)cc(C(F)(F)F)cc2Cl)ccc1[N+](=O)[O-] (racemic) [(A), 5-(2,6-Dichlor-4-trifluormethyl-phenoxy)-2-nitro-benzoesäure-(1-ethoxycarbonyl-ethyl)-ester, reference compound] | 92% | 100 | 100 | 100% | 95 | 69,3% | 100 | 40 | 95,6% | 10 |  |  | 
CCOC(=O)C(C)OC(=O)c1cc(Oc2ccc(C(F)(F)F)cc2Cl)ccc1[N+](=O)[O-] (racemic) [(B), 5-(2-Chlor-4-trifluormethyl-phenoxy)-2-nitro-benzoesäure-(1-ethoxycarbonylethyl)-ester, reference compound] | 89,1% | 100 | 99 | 99,9% | 95 | 61,4% | 100 | 0 | 81,4% | 0 |  |  | 
CCOC(=O)[C@H](C)OC(=O)c1cc(Oc2c(Cl)cc(C(F)(F)F)cc2Cl)ccc1[N+](=O)[O-] [(1), 5-(2,6-Dichlor-4-trifluor-methyl-phenoxy)-2-nitrobenzoesäure-(1-ethoxycarbonyl-ethyl)-ester] |  |  |  |  |  |  |  |  |  |  | bessere herbizide Wirksamkeit | bessere herbizide Wirksamkeit | Wirkung (in %) Monocotyledoneae (Monocotyledoneae [1]; 0,45 kg/ha): 89,9%; Wirkung (in %) Rüben (Rüben [2]; 0,45 kg/ha): 100%; Wirkung (in %) Soja (Soja [3]; 0,45 kg/ha): 100%; Wirkung (in %) Dicotyledoneae (Dicotyledoneae [4]; 0,45 kg/ha): 99,9%; Wirkung (in %) Mais (Mais [5]; 0,45 kg/ha): 95%; Wirkung (in %) Monocotyledoneae (Monocotyledoneae [6]; 0,45 kg/ha): 42,1%; Wirkung (in %) Rüben (Rüben [7]; 0,45 kg/ha): 99%; Wirkung (in %) Soja (Soja [8]; 0,45 kg/ha): 10%; Wirkung (in %) Dicotyledoneae (Dicotyledoneae [9]; 0,45 kg/ha): 88,6%; Wirkung (in %) Mais (Mais [10]; 0,45 kg/ha): 0%
CCOC(=O)[C@H](C)OC(=O)c1cc(Oc2ccc(C(F)(F)F)cc2Cl)ccc1[N+](=O)[O-] [(2), 5-(2-Chlor-4-trifluormethyl-phenoxy)-2-nitro-benzoesäure-(1-ethoxycarbonyl-ethyl)-ester] |  |  |  |  |  |  |  |  |  |  | bessere herbizide Wirksamkeit | bessere herbizide Wirksamkeit | Wirkung (in %) Monocotyledoneae (Monocotyledoneae [1]; 0,51 kg/ha): 83,3%; Wirkung (in %) Rüben (Rüben [2]; 0,51 kg/ha): 100%; Wirkung (in %) Soja (Soja [3]; 0,51 kg/ha): 99%; Wirkung (in %) Dicotyledoneae (Dicotyledoneae [4]; 0,51 kg/ha): 99,9%; Wirkung (in %) Mais (Mais [5]; 0,51 kg/ha): 100%; Wirkung (in %) Monocotyledoneae (Monocotyledoneae [6]; 0,51 kg/ha): 74,1%; Wirkung (in %) Rüben (Rüben [7]; 0,51 kg/ha): 99%; Wirkung (in %) Soja (Soja [8]; 0,51 kg/ha): 0%; Wirkung (in %) Dicotyledoneae (Dicotyledoneae [9]; 0,51 kg/ha): 77,1%; Wirkung (in %) Mais (Mais [10]; 0,51 kg/ha): 0%
